Tests used:
Assay type in all cases: in vivo, mouse
noise-damaged cochlea = experiment: ABR after systemic LY411575 in noise-damaged mice
Procedure: (§1) 4-week-old mice were exposed free-field, awake and unrestrained, in a small reverberant chamber (22). Acoustic trauma was produced by a 2 h exposure to an 8-16 kHz octave band noise presented at 116 dB SPL. The exposure stimulus was generated by a custom white-noise source, filtered (Brickwall Filter with a 60 dB/octave slope), amplified (Crown power amplifier), and delivered (JBL compression driver) through an exponential horn fitted securely to a hole in the top of a reverberant box.
[…] Hearing was measured by ABR at 1 d before, 2 d, 1, 2 week, 1, 2 and 3 months after noise exposure.
Mice were anesthetized with ketamine (100 mg/kg i.p.) and xylazine (20 mg/kg i.p.). Needle electrodes were inserted at vertex and pinna, with a ground near the tail. ABRs were evoked with 5-ms tone pips (0.5-ms rise-fall with a cos^2 onset envelope delivered at 35/s). The response was amplified, filtered and averaged in a LabVIEW-driven data-acquisition system. Sound level was raised in 5 dB steps from ≥10 dB below threshold <80 dB SPL. At each sound level, 1024 responses were averaged (with stimulus polarity alternated), using an “artifact reject,” whereby response waveforms were discarded when peak-to-peak response amplitude exceeded 15 μV. […] For amplitude versus level functions, the wave I peak was identified by visual inspection at each sound level and the peak-to-peak amplitude computed.

Atoh1 mRNA = experiment: qRT-PCR of Atoh1 in deafened mature cochlea after round window administration
Procedure: as §1
4-week-old mice weighing 12 to 16 g were used. Before surgery, the animals were anesthetized with ketamine (20 mg/kg, i.p.) and xylazine (100 mg/kg, i.p.), and an incision was made posterior to the pinna near the external meatus after local administration of lidocaine (1%). […]
The organs of Corti were dissected in HBSS (Invitrogen) and stored in RNAlater (Ambion) at −80° C. until further use. […] Samples were analyzed in 96 wells in triplicate by qPCR (Applied Biosystems 7900HT), and PCR thermal cycling conditions were as follows: initial denaturation at 95° C. for 2 min, denaturation at 95° C. for 15 s, annealing/extension at 60° C. for 1 min for 45 cycles. […] Relative gene expression was analyzed by using the ΔΔCT method. Gene expression was calculated relative to 18S RNA, and the amount of cDNA applied was adjusted so that the Ct value for 18S RNA was between 8 and 11. […]

deafened mature cochlea = experiment: Hair cell and supporting cell counts in deafened mature cochlea after round window administration
Procedure: as §1
4-week-old mice weighing 12 to 16 g were used. Before surgery, the animals were anesthetized with ketamine (20 mg/kg, i.p.) and xylazine (100 mg/kg, i.p.), and an incision was made posterior to the pinna near the external meatus after local administration of lidocaine (1%). The otic bulla was opened to approach the round window niche. The end of a piece of PE 10 tubing (Becton Dickinson) was drawn to a fine tip in a flame and gently inserted into the round window niche. LY411575 was dissolved in DMSO and diluted 10-fold in polyethylene glycol 400 (Sigma) to a final concentration of 4 mM. This solution (total volume 1 μl) was injected into the round window niche of the left ear. Polyethylene glycol 400 with 10% DMSO was injected into the right ear as a control. The solution was administered for 2 min. This approach is presently used clinically (e.g. transtympanic injection of steroids for sudden hearing loss and gentamicin for severe balance disorders) and has the advantage of sparing the […] but still taking advantage of the local route provided by the round window membrane for delivery of drug into the inner ear (50). Gelatin was placed on the niche to maintain the solution, and the wound was closed.
For collection of mature mouse cochleae, after being deeply anesthetized with ketamine and xylazine, the mice were transcardially perfused with 0.01 M phosphate buffer (pH 7.4) containing 8.6% sucrose, followed by fixative consisting of freshly depolymerized 4% paraformaldehyde in 0.1 M phosphate buffer (pH 7.4). After decapitation, the temporal bones were removed and immediately placed in the same fixative at 4° C. Small openings were made at the round window, oval window, and apex of the cochlea. […] Primary antibodies were detected with secondary antibodies conjugated with Alexa 488, 568, and 647 (Molecular Probes) and viewed by confocal fluorescence microscopy (TCS SP5, Leica). […]
Cell counting for spheres was performed with MetaMorph software. The cell number was determined from DAPI- or Hoechst-positive nuclei. […] For explants, inner hair cells, outer hair cells, and supporting cells in the outer hair cell region were counted on cochlear whole mounts. […]

## C[C@H](NC(=O)[C@@H](O)c1cc(F)cc(F)c1)C(=O)N[C@@H]1C(=O)N(C)c2ccccc2-c2ccccc21 [LY411575, N-2((2S)-2-(3,5-difluorophenyl)-2-hydroxyethanoyl)-N1-((7S)-5-methyl-6-oxo-6,7-dihydro-5H-dibenzo[b,d]azepin-7-yl)-l-alaninamide]
noise-damaged cochlea; 10 mg/kg body weight
  therapeutic benefit at lower dose: no therapeutic benefit
noise-damaged cochlea; oral 50 mg/kg for 5 d, 4, 8 and 16 kHz
  noise-induced ABR threshold shift: decreased
Atoh1 mRNA; 1 d after LY411575 treatment, round window niche
  Atoh1 expression above the level post-noise exposure: 2.28 ×
Atoh1 mRNA; 3 d after treatment, p<0.05
  Atoh1 expression: remained elevated
Deafened mature cochlea; 3 months, treated group
  numbers of inner hair cells: no significant changes
Deafened mature cochlea; 3 months, 8-16 kHz, p<0.05
  number of outer hair cells compared to carrier-treated contralateral ear: increased
Deafened mature cochlea; 3 months, 8 and 11.3 kHz areas, p<0.05
  number of supporting cells in the outer hair cell region compared to carrier-treated ear: decreased significantly
Deafened mature cochlea; above 22 kHz, with and without LY411575
  outer hair cells in the most basal regions: completely absent

Source: patent publication US12161647B2, “Treating hearing loss” (Massachusetts Eye and Ear Infirmary, priority 2012, dated 2024)
